Source: US9850283B2, “Macrocyclic inhibitors of the PD-1/PD-L1 and CD80(B7-1)/PD-L1 protein/protein interactions” (BRISTOL-MYERS SQUIBB COMPANY, priority 2013, dated 2017)
Where two headings read alike, the source gives them in different places. Starred links: 1 amine or outer side, 2 acyl side, 3 side chain; linkers in the order of their positions; H or OH if unused. Positions of bridges follow the written chain, without caps; N, C: chain ends. Non-standard residues stand in square brackets, D forms with d. Residues, ends and D or L forms follow the SMILES beside them. ξ: configuration not given here. X5 = CCCOc1ccc(-c2[nH]c3ccccc3c2C[C@H](N[*:1])C(=O)[*:2])cc1; X2 = CCOc1ccc(-c2[nH]c3ccccc3c2C[C@H](N[*:1])C(=O)[*:2])cc1; X18 = CS(=O)(=O)Nc1ccc(C[C@H](N[*:1])C(=O)[*:2])cc1; Phe(3-Cl) = N[C@@H](Cc1cccc(Cl)c1)C(=O)O; Phe(2-OMe) = COc1ccccc1C[C@H](N)C(=O)O; Bta = N[C@@H](Cc1csc2ccccc12)C(=O)O; cisHyp = O=C(O)[C@@H]1C[C@H](O)CN1; Hyp = O=C(O)[C@@H]1C[C@@H](O)CN1; NMeF = CN[C@@H](Cc1ccccc1)C(=O)O; NMeNle = CCCC[C@H](NC)C(=O)O; NMeM = CN[C@@H](CCSC)C(=O)O; ξR = N=C(N)NCCCC(N)C(=O)O; NMeA = CN[C@@H](C)C(=O)O; Orn = NCCC[C@H](N)C(=O)O; Dab = NCC[C@H](N)C(=O)O; Dap = NC[C@H](N)C(=O)O; ξhCys = NC(CCS)C(=O)O; ξC = NC(CS)C(=O)O; Sar = CNCC(=O)O

What was measured:
[1] = molecular target: T1, Human PD-L1/PD-1 (Homo sapiens, UniProt Q9NZQ7); test: HTRF PD-1-Ig/PD-L1-His binding assay (human PD-L1); conditions: cluster symbol; read-out: HTRF IC50 cluster
T1 construct: made in house; host or cells: HEK293T
Outline: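 Interaction of Fc-tagged soluble PD-1 with His-tagged soluble PD-L1 is monitored by time-resolved FRET. Donor is europium cryptate anti-Ig (1 nM final) and acceptor is APC anti-His (20 nM final). Assay buffer is dPBS with 0.1% BSA and 0.05% Tween-20.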

[2] = molecular target: T2, LK35.2-hPD-L1 cells / PE-labeled PD-1-Ig (Homo sapiens, UniProt Q9NZQ7); test: LK35.2-hPD-L1 cell binding high-content screening assay; assay type: cell-based; conditions: cluster symbol, read-out: CBA IC50 cluster
T2 construct: expressed in transfected cells; host or cells: LK35.2 mouse B cell line
Outline: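 Fluorescent PD-1-Ig binding to PD-L1-expressing LK35.2 cells, imaged after washing. Conditions: 1 nM PE-PD-1-Ig, 37 °C, 1 h, RPMI with 10% fetal calf serum.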

[3] = cell binding assay, cell line not given
[4] = cell line of CBA not given (LK35.2-hPD-L1 or 293T-hPD-L1)

T2 sequence (Q9NZQ7 19-290): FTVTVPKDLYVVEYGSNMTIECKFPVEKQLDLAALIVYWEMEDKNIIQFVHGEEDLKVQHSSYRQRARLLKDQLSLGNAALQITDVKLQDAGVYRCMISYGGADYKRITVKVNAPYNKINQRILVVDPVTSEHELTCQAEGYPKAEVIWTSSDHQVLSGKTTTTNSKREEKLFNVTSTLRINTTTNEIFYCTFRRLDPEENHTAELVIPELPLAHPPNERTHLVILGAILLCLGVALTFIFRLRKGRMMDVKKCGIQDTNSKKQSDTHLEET
T1 sequence (Q9NZQ7 with tags, fused parts or gaps): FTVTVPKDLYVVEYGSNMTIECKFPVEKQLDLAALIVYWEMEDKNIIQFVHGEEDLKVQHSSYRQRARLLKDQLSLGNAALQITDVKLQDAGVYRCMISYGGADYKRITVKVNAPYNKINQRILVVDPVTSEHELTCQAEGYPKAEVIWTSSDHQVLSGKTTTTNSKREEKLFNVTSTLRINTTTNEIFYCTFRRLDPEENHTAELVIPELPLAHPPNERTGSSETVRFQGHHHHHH

| IC50 [1] [nM] | IC50 [2, 3] [nM] | IC50 [2, 4] [nM] | SMILES |
| --- | --- | --- | --- |
| 6.76 to 30.3 | 0.158 to 4.71 |  | CCCC[C@H]1C(=O)N(C)CC(=O)N[C@@H](CC(=O)O)C(=O)N[C@@H](C(C)C)C(=O)N(C)[C@@H](Cc2ccccc2)C(=O)N[C@@H](Cc2ccc(O)cc2)C(=O)N2CCC[C@@H]2C(=O)N[C@@H](Cc2c[nH]c3ccccc23)C(=O)N[C@@H](Cc2ccc(O)cc2)C(=O)N[C@@H](CC(C)C)C(=O)N[C@H](C(=O)NCC(N)=O)CSCC(=O)N[C@@H](Cc2ccccc2)C(=O)N(C)[C@@H](Cc2ccccc2)C(=O)N1C [Example 3562] (HELM PEPTIDE1{[O=C(C[*:3])[*:2]].F.[meF].[CCCC[C@@H](C(=O)[*:2])N(C)[*:1]].[Sar].D.V.[meF].Y.[dP].W.Y.L.C.G.[am]}$PEPTIDE1,PEPTIDE1,1:R3-14:R3$$$V2.0) |
| > 30.5 | > 74.3 |  | CCCC[C@H]1C(=O)N(C)[C@@H](CCCC)C(=O)N[C@@H](CC(C)C)C(=O)N[C@H](C(=O)NCC(N)=O)CSCC(=O)N[C@@H](Cc2ccc(O)cc2)C(=O)N(C)[C@@H](C)C(=O)N[C@@H](CC(N)=O)C(=O)N2CCC[C@H]2C(=O)N[C@@H](Cc2cnc[nH]2)C(=O)N[C@@H](CCC(=O)O)C(=O)N2C[C@H](O)C[C@H]2C(=O)N[C@@H](Cc2csc3ccccc23)C(=O)N[C@@H](CCN)C(=O)N[C@@H](Cc2c[nH]c3ccccc23)C(=O)N1C [Example 5051] ({CH2CO}-Y[NMeA]NPHE[Hyp][Bta][Dab]W[NMeNle][NMeNle]LCG-NH2; thioether N-14) |
| 6.76 to 30.3 |  | 4.78 to 72.9 | CCCC[C@H]1C(=O)N(C)CC(=O)N[C@@H](CC(=O)O)C(=O)N[C@@H](C(C)C)C(=O)N(C)[C@@H](Cc2ccccc2)C(=O)N[C@@H](Cc2ccc(O)cc2)C(=O)N(C)CC(=O)N[C@@H](Cc2csc3ccccc23)C(=O)N[C@@H](Cc2ccc(O)cc2)C(=O)N[C@@H](CC(C)C)C(=O)N[C@H](C(=O)NCC(N)=O)CSCC(=O)N[C@@H](Cc2cccc(Cl)c2)C(=O)N(C)[C@@H](Cc2ccccc2)C(=O)N1C [Example 3114] ({CH2CO}-[Phe(3-Cl)][NMeF][NMeNle][Sar]DV[NMeF]Y[Sar][Bta]YLCG-NH2; thioether N-13) |
| 0.385 to 6.74 | 0.158 to 4.71 |  | CCCC[C@H]1C(=O)N(C)[C@@H](CCCC)C(=O)NC(CCCNC(=N)N)C(=O)N[C@H](C(=O)NCC(N)=O)CSCC(=O)N[C@@H](Cc2ccc(O)cc2)C(=O)N(C)[C@@H](C)C(=O)N[C@@H](CC(N)=O)C(=O)N2CCC[C@H]2C(=O)N[C@@H](CN)C(=O)N[C@@H](CC(C)C)C(=O)N2C[C@H](O)C[C@H]2C(=O)N[C@@H](Cc2c[nH]c3ccccc23)C(=O)N[C@@H](CO)C(=O)N[C@@H](Cc2c(-c3ccc(OCC)cc3)[nH]c3ccccc23)C(=O)N1C (stereo partly shown) [Example 7009] ({CH2CO}-Y[NMeA]NP[Dap]L[Hyp]WS[X2][NMeNle][NMeNle][ξR]CG-NH2; thioether N-14) |
| > 30.5 |  | > 74.3 | CCCC[C@H]1C(=O)N(C)[C@@H](CCCC)C(=O)N[C@@H](CCCNC(=N)N)C(=O)N[C@H](C(=O)NCC(N)=O)CSCC(=O)N[C@@H](Cc2ccc(NS(C)(=O)=O)cc2)C(=O)N(C)[C@@H](C)C(=O)N[C@@H](CC(N)=O)C(=O)N2CCC[C@H]2C(=O)N[C@@H](Cc2cnc[nH]2)C(=O)N[C@@H](CC(C)C)C(=O)N(C)CC(=O)N[C@@H](Cc2c[nH]c3ccccc23)C(=O)N[C@@H](CO)C(=O)N[C@@H](Cc2c[nH]c3ccccc23)C(=O)N1C [Example 1100] ({CH2CO}-[X18][NMeA]NPHL[Sar]WSW[NMeNle][NMeNle]RCG-NH2; thioether N-14) |
| 6.76 to 30.3 | > 74.3 |  | CCCC[C@H]1C(=O)N(C)[C@@H](CCCC)C(=O)N[C@@H](CCCNC(=N)N)C(=O)NC(C(=O)NCC(N)=O)CCSCC(=O)N[C@@H](Cc2ccc(O)cc2)C(=O)N(C)[C@@H](C)C(=O)N[C@@H](CC(N)=O)C(=O)N2CCC[C@H]2C(=O)N[C@@H](Cc2cnc[nH]2)C(=O)N[C@@H](CC(C)C)C(=O)N2C[C@H](O)C[C@H]2C(=O)N[C@@H](Cc2c[nH]c3ccccc23)C(=O)N[C@@H](CO)C(=O)N[C@@H](Cc2c[nH]c3ccccc23)C(=O)N1C (stereo partly shown) [Example 9021] ({CH2CO}-Y[NMeA]NPHL[Hyp]WSW[NMeNle][NMeNle]R[ξhCys]G-NH2; thioether N-14) |
| 0.385 to 6.74 | 0.158 to 4.71 |  | CCCC[C@H]1C(=O)N(C)[C@@H](CCCC)C(=O)N[C@@H](CCC(=O)O)C(=O)N[C@H](C(=O)NCC(N)=O)CSCC(=O)N[C@@H](Cc2ccc(O)cc2)C(=O)N(C)[C@@H](C)C(=O)N[C@@H](CCC(=O)O)C(=O)N2CCC[C@H]2C(=O)N[C@@H](Cc2c[nH]cn2)C(=O)N[C@@H](CCCN)C(=O)N2C[C@H](O)C[C@H]2C(=O)N[C@@H](Cc2c[nH]c3ccccc23)C(=O)N[C@@H](CCCCN)C(=O)N[C@@H](Cc2c[nH]c3ccccc23)C(=O)N1C [Example 5138] ({CH2CO}-Y[NMeA]EPH[Orn][Hyp]WKW[NMeNle][NMeNle]ECG-NH2; thioether N-14) |
| 0.385 to 6.74 |  | 0.158 to 4.71 | CCCC[C@H]1C(=O)N(C)[C@@H](CCCC)C(=O)N[C@@H](CCCNC(=N)N)C(=O)N[C@H](C(=O)NCC(=O)O)CSCC(=O)N[C@@H](Cc2ccc(O)cc2)C(=O)N(C)[C@@H](C)C(=O)N[C@@H](CC(N)=O)C(=O)N2CCC[C@H]2C(=O)N[C@@H](CN)C(=O)N[C@@H](CC(C)C)C(=O)N2C[C@@H](O)C[C@H]2C(=O)N[C@@H](Cc2c[nH]c3ccccc23)C(=O)N[C@@H](CO)C(=O)N[C@@H](Cc2csc3ccccc23)C(=O)N1C [Example 1141] ({CH2CO}-Y[NMeA]NP[Dap]L[cisHyp]WS[Bta][NMeNle][NMeNle]RCG-OH; thioether N-14) |
| 0.385 to 6.74 | 4.78 to 72.9 |  | CCCC[C@H]1C(=O)N(C)[C@@H](CCCC)C(=O)N[C@@H](CCCNC(=N)N)C(=O)N[C@H](C(=O)NCC(N)=O)CSCC(=O)N[C@@H](Cc2ccccc2OC)C(=O)N(C)[C@@H](C)C(=O)N[C@@H](CC(N)=O)C(=O)N2CCC[C@H]2C(=O)N[C@@H](Cc2cnc[nH]2)C(=O)N[C@@H](CC(C)C)C(=O)N2CCC[C@H]2C(=O)N[C@@H](Cc2c[nH]c3ccccc23)C(=O)N[C@@H](CO)C(=O)N[C@@H](Cc2c[nH]c3ccccc23)C(=O)N1C [Example 7017] ({CH2CO}-[Phe(2-OMe)][NMeA]NPHLPWSW[NMeNle][NMeNle]RCG-NH2; thioether N-14) |
| 0.385 to 6.74 | 0.158 to 4.71 |  | CCCC[C@H]1C(=O)N(C)[C@@H](C)C(=O)N[C@@H](CCCNC(=N)N)C(=O)NC(C(=O)NCC(N)=O)CSCC(=O)N[C@@H](Cc2ccc(O)cc2)C(=O)N(C)[C@@H](C)C(=O)N[C@@H](CC(N)=O)C(=O)N2CCC[C@H]2C(=O)N[C@@H](Cc2cnc[nH]2)C(=O)N[C@@H](CC(C)C)C(=O)N2C[C@H](O)C[C@H]2C(=O)N[C@@H](Cc2c[nH]c3ccccc23)C(=O)N[C@@H](CO)C(=O)N[C@@H](Cc2c[nH]c3ccccc23)C(=O)N1C (stereo partly shown) [Example 9055] |
| > 30.5 |  | 4.78 to 72.9 | CCCC[C@H]1C(=O)N2CCC[C@@H]2C(=O)N2C[C@H](O)C[C@H]2C(=O)N[C@@H](C(C)C)C(=O)N(C)[C@@H](Cc2ccccc2)C(=O)N[C@@H](Cc2ccc(O)cc2)C(=O)N(C)CC(=O)N[C@@H](Cc2c[nH]c3ccccc23)C(=O)N[C@@H](Cc2ccc(O)cc2)C(=O)N[C@@H](CC(C)C)C(=O)N[C@H](C(=O)NCC(N)=O)CSCC(=O)N[C@@H](Cc2ccccc2)C(=O)N(C)[C@@H](Cc2ccccc2)C(=O)N1C [Example 3174] (HELM PEPTIDE1{[O=C(C[*:3])[*:2]].F.[meF].[CCCC[C@@H](C(=O)[*:2])N(C)[*:1]].[dP].[Hyp].V.[meF].Y.[Sar].W.Y.L.C.G.[am]}$PEPTIDE1,PEPTIDE1,1:R3-14:R3$$$V2.0) |
| 0.385 to 6.74 | 4.78 to 72.9 |  | CCCC[C@H]1C(=O)N(C)[C@@H](CCCC)C(=O)N[C@@H](CC(C)C)C(=O)N[C@H](C(=O)NCC(N)=O)CSCC(=O)N[C@@H](Cc2ccc(O)cc2)C(=O)N(C)[C@@H](C)C(=O)N[C@@H](CCN)C(=O)N2CCC[C@H]2C(=O)N[C@@H](Cc2c[nH]cn2)C(=O)N[C@@H](CCC(=O)O)C(=O)N2C[C@H](O)C[C@H]2C(=O)N[C@@H](Cc2c[nH]c3ccccc23)C(=O)N[C@@H](CO)C(=O)N[C@@H](Cc2c[nH]c3ccccc23)C(=O)N1C [Example 5133] ({CH2CO}-Y[NMeA][Dab]PHE[Hyp]WSW[NMeNle][NMeNle]LCG-NH2; thioether N-14) |
| 0.385 to 6.74 | 4.78 to 72.9 |  | CCCC[C@H]1C(=O)N(C)[C@@H](CCCC)C(=O)NC(CCCNC(=N)N)C(=O)N[C@H](C(=O)NCC(N)=O)CSCC(=O)N[C@@H](Cc2ccc(O)cc2)C(=O)N(C)[C@@H](C)C(=O)N[C@@H](CC(N)=O)C(=O)N2CCC[C@H]2C(=O)N[C@@H](CN)C(=O)N[C@@H](CC(C)C)C(=O)N2C[C@H](O)C[C@H]2C(=O)N[C@@H](Cc2c[nH]c3ccccc23)C(=O)N[C@@H](CO)C(=O)N[C@@H](Cc2c(-c3ccc(OCCC)cc3)[nH]c3ccccc23)C(=O)N1C (stereo partly shown) [Example 7005] ({CH2CO}-Y[NMeA]NP[Dap]L[Hyp]WS[X5][NMeNle][NMeNle][ξR]CG-NH2; thioether N-14) |
| 0.385 to 6.74 | 4.78 to 72.9 |  | CCCC[C@H]1C(=O)N(C)[C@@H](CCSC)C(=O)N[C@@H](C)C(=O)NC(C(=O)NCC(N)=O)CSCC(=O)N[C@@H](Cc2ccc(O)cc2)C(=O)N(C)[C@@H](C)C(=O)N[C@@H](CC(N)=O)C(=O)N2CCC[C@H]2C(=O)N[C@@H](CN)C(=O)N[C@@H](CC(C)C)C(=O)N2CCC[C@H]2C(=O)N[C@@H](Cc2c[nH]c3ccccc23)C(=O)N[C@@H](CO)C(=O)N[C@@H](Cc2c[nH]c3ccccc23)C(=O)N1C (stereo partly shown) [Example 9085] ({CH2CO}-Y[NMeA]NP[Dap]LPWSW[NMeNle][NMeM]A[ξC]G-NH2; thioether N-14) |
